Experimental data from patent US20220180963A1, “METHOD FOR SELECTING PATIENT SPECIFIC THERAPY” (YISSUM RESEARCH DEVELOPMENT COMPANY OF THE HEBREW …, priority 2018, published 2022).

What was measured:
Assay type in all cases: cell-based
MCF7 cells = experiment: Survival of MCF7 cells after drug treatment (methylene blue); settings: maximal killing, FIG. 14H
Procedure: Schematic figures of each unbalanced process are shown. […] For each cell line the combination of drugs predicted to target the complete unbalanced signaling signature was tested (marked with an asterix), as well as combinations that were predicted to only partially target the unbalanced signaling flux, each drug alone and taxol. […] Stain-free imaging was used to ensure equal loading.
Indeed, 4-OHT killed only up to 50% of the cells (FIG. 14H). […] Similar to the case in MDA468 cells, the double combination consisting of T and LY was expected to target all unbalanced processes in these cells, however since there are 4 distinct unbalanced processes that need to be targeted, addition of a third drug is apparently necessary to enhance the effect (FIG. 14G-I).

MDA-MB-231 cells = experiment: Survival of MDA-MB-231 cells after drug treatment (methylene blue); settings: FIG. 14B; for killing / survival of MDA231 cells: methylene blue survival
From the text: (§1) FIG. 14A-I. Experimental validation of the approach (14A, 14D, 14G) Diagrams of signaling signatures of MDA-MB-231, MDA-MB-468 and MCF7 cells, according to SA based analysis. Schematic figures of each unbalanced process are shown. Drug predictions are indicated for each cell line, including the processes that they are predicted to target. (14B, 14E, 14H) Bar charts of survival rates in response to different treatments (as measured by methylene blue). For each cell line the combination of drugs predicted to target the complete unbalanced signaling signature was tested (marked with an asterix), as well as combinations that were predicted to only partially target the unbalanced signaling flux, each drug alone and taxol. For MDA468 a triple combination was tested as well (marked with two asterix signs, shown in the inset in FIG. 14E). […] Stain-free imaging was used to ensure equal loading. […] Bar chart inserts show quantified relative expression of the investigated protein.
To validate the approach, we analyzed a dataset comprising RPPA measurements from 10 cell lines, including breast, ovarian, and oesophageal cancer, and assigned a barcode and drug combinations to each cell line. The predictions were made such that for each cell line, at least one protein hub from every active unbalanced process will be inhibited, aiming to collapse the sample-specific altered signaling network. Three breast cancer cell lines were chosen for experimental validation: MDA-MB-231 (MD231), MDA-MB-468 (MD468), and MCF7. The two formers represent triple negative breast cancer (TNBC) against which no targeted therapy exists in clinics today. TNBC is often treated with non-specific chemotherapy, such as taxol^1. MCF7 represent luminal type A breast cancer, routinely treated with the ERα inhibitor, tamoxifen, and in some cases chemotherapy such as taxanes.

MDA-MB-468 cells = experiment: Survival of MDA-MB-468 cells after drug treatment (methylene blue); settings: maximal killing, FIG. 14E
From the text: as §1
To validate the approach, we analyzed a dataset comprising RPPA measurements from 10 cell lines, including breast, ovarian, and oesophageal cancer, and assigned a barcode and drug combinations to each cell line. The predictions were made such that for each cell line, at least one protein hub from every active unbalanced process will be inhibited, aiming to collapse the sample-specific altered signaling network. […]

| Molecule | cells killed (MCF7 cells) | killing / survival of MDA231 cells (MDA-MB-231 cells) | cells killed (MDA-MB-468 cells) | concentration at which efficacy of the treatment plateaued (MDA-MB-231 cells) |
| --- | --- | --- | --- | --- |
| 4-hydroxy tamoxifen [4-OHT] | up to 50% | – | – | – |
| C#Cc1cccc(Nc2ncnc3cc(OCCOC)c(OCCOC)cc23)c1 [erlotinib] | – | no effect | – | – |
| CC(=O)O[C@H]1C(=O)[C@@]2(C)[C@H]([C@H](OC(=O)c3ccccc3)[C@]3(O)C[C@H](OC(=O)[C@H](O)[C@@H](NC(=O)c4ccccc4)c4ccccc4)C(C)=C1C3(C)C)[C@]1(OC(C)=O)CO[C@@H]1C[C@@H]2O [taxol] | – | efficiently killed | ~80% | 100 nM |
| CC(=O)Nc1cccc(-n2c(=O)n(C3CC3)c(=O)c3c(Nc4ccc(I)cc4F)n(C)c(=O)c(C)c32)c1 [trametinib] | – | – | – | 100 nM |
